Measurements reported in article PMC10692362 (Acta Pharmaceutica Sinica. B, 2023).
Peptide text beside a SMILES is read from it. * marks the point of attachment. Cbz = O=C(OCc1ccccc1)*

Tested on: ERα
Test: Immunoblot analysis of ERα degradation across ERα^WT and ERα^MUT BC cell lines
Format: cell-based, human
Conditions: 10 μmol/L MG-132 alone

Structure (SMILES): CC(C)C[C@@H](C=O)NC(=O)[C@H](CC(C)C)NC(=O)[C@H](CC(C)C)NC(=O)OCc1ccccc1 [MG-132, reference compound] (Cbz-Leu-Leu-Leu-aldehyde)
- Effect on ERα degradation, alone: no effect on ERα degradation
